# Where “and” joins values, the source holds several entries; their conditions need not be identical. Equal entries are not always repeated. Where two headings read alike, the source gives them in different places.
# Legend:
# [1] = target: human Na,K-ATPase α2β3FXYD1 (Homo sapiens (Human), UniProt P50993+P54709); assay: biochemical; format: biochemical
# basal IOP in rabbits = assay: Basal IOP in rabbits, topical administration; format: in vivo, rabbit
# [2] = test system: 4AP-induced IOP in rabbits; format: in vivo, rabbit; details: one drop topically prior to 4AP
# tissues of the eye = assay: Histological examination of eye tissues after topical application for one week; format: in vivo, rabbit; details: one drop of 1 mM daily for one week
# Description: In order to assess whether topical application of DcB damaged the tissues of the eye including cornea, iris, lens, cilary body, retina, choroid and sclera, a histological examination was conducted after topical application, using one drop of 1 mM DcB daily for one week in one eye of each animal, with the other eye treated topically with one drop of PBS and serving as the control. Animals were sacrificed, eyes were removed, fixed in 10% neutral buffered formalin, processed routinely for histological examination, trimmed at 4 μm, and stained with hematoxylin and eosin.
# [3] = target: human Na,K-ATPase α1β1FXYD1 (Homo sapiens (Human), UniProt P05023); format: biochemical
# [4] = target: human Na,K-ATPase α2β2FXYD1 (Homo sapiens (Human), UniProt P50993); format: biochemical
# [5] = target: human Na,K-ATPase α2β1FXYD1 (Homo sapiens, UniProt P50993); format: biochemical
# [6] = test system: human Na,K-ATPase α2β1FXYD1; format: biochemical
# [7] = target: Na,K-ATPase in bovine ciliary NPE cells (Bos taurus, UniProt A2VDL6); assay: biochemical
# [8] = test system: Na,K-ATPase in bovine ciliary NPE cells; assay: biochemical; details: 1 site model; read-out: Ki, nM ± SEM
# [9] = target: Na,K-ATPase in bovine ciliary NPE cells (Bos taurus, UniProt Q08DA1); assay: biochemical
smiles,measurement,setting,value
CC1CN(C2CCC2)CCC(O[C@@H]2[C@H](C)O[C@@H](O[C@@H]3[C@H](C)O[C@@H](O[C@H]4CC[C@@]5(C)C(CCC6C5C[C@H](O)[C@]5(C)[C@@H](C7=CC(=O)OC7)CC[C@]65O)C4)C[C@@H]3O)C[C@@H]2O)O1 (some centres unmarked) [DcB],Ki for α2β3 lower than for digoxin,[1],about 10 fold
same,Selectivity Ki ratio α1β1/α2β3,[1],33.6
same,selectivity for α2β3 over α1β1 (Ki α1β1:α2β3 ratio),[1],33 fold
same,Ki,[1]; read-out: Ki in nM ± SEM α2β3,~4 nM and 4 nM
same,time after which IOP returned to the control value,"basal IOP in rabbits; 1 mM DcB, 0.005% Latanoprost",12 h
same,effect on basal IOP at higher concentration,basal IOP in rabbits; 2 mM,reduces the IOP similarly to 1 mM DcB
same,steady-state IOP as % of the unchanged control values,basal IOP in rabbits; after 3-8 hours,75-80%
same,steady-state IOP lower than basal IOP,"basal IOP in rabbits; after 3-8 hours, basal IOP 17-18 mmHg, 1 mM DcB, 0.005% Latanoprost",3.5±0.15 mmHg
same,effect on lowering basal IOP,"basal IOP in rabbits; one drop of 1 mM solution, other eye PBS",notable effect
same,reduction of basal IOP,basal IOP in rabbits; rabbit with a basal IOP of 17 mm Hg,about 4 mm Hg
same,more effective than Latanoprost in reducing basal IOP,basal IOP in rabbits; relative to Latanoprost,about 25%
same,reduction of basal IOP,"basal IOP in rabbits; topical, test period of 4-5 hours",20-25%
same,concentration that prevents the 4AP-induced rise in IOP,[2],0.01 mM
same,histological differences between treated and untreated eyes,tissues of the eye,No significant histological differences were observed
same,Ki for α1β1 lower than for digoxin,[3],2-3 fold
same,Ki,[3]; read-out: Ki in nM ± SEM α1β1,135 ± 11 nM
same,Ki,[3]; read-out: Ki of α1β1FXYD1,135 ± 11 nM
same,Selectivity Ki ratio α1β1/α2β2,[4],22.2
same,Ki,[4]; read-out: Ki in nM ± SEM α2β2,6 ± 1 nM
same,Ki,[5]; read-out: Ki in nM ± SEM α2β1,8 ± 1.25 nM
same,Ki,[5]; read-out: Ki of α2β1FXYD1,8 ± 1.25 nM
same,Selectivity Ki ratio α1β1/α2β1,[6],16.9
same,Ki,[7],6.9 ± 2 nM
same,Ki,"[7]; read-out: Ki α2, 2 sites model",6.9 nM
same,Ki,[8],17.3 ± 2.5 nM
same,Ki,[9],151 ± 7.6 nM
